Measured values taken from PMC11191095, “QSAR Reveals Decreased Lipophilicity of Polar Residues Determines the Selectivity of Antimicrobial Peptide Activity” (ACS Omega, 2024).
Where a SMILES comes first, the peptide text is derived from it.

What was measured:
[1] = system: human erythrocytes; test: In vitro hemolytic activity; format: cell-based; settings: human erythrocytes in PBS, 1 h, 37 °C, OD550; from dose response curves
Procedure: Potential erythrocyte hemolysis was tested by incubating serial dilutions of the AMPs in PBS with freshly collected erythrocytes at a ratio of 1:1 in 96-well polypropylene V-shape plates for 1 h at 37 °C. Control wells were treated with 0.1% Triton-X-100 to ensure complete lysis or PBS-only to represent no lysis. The erythrocytes were collected by centrifugation and the OD550 of the supernatant was measured using a plate reader. The percentage hemolysis was calculated as [drawing 1] 1 where Apeptide is the absorbance value of erythrocytes exposed to a known peptide concentration, Agrowth control is the absorbance of erythrocytes exposed to 0.1% Triton-X-100 and Ablank is the absorbance of erythrocytes exposed to the PBS. The concentrations at which a peptide caused 10% (HC10) and 50% (HC50) hemolysis was determined from the dose response curves.

[2] = system: A. baumannii AYE; test: microbe, parasite or virus in culture; format: cell-based, Acinetobacter baumannii; settings: A. baumannii AYE (R); shown in µM
Outline: (§1)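 Peptides 128→2 μg/mL, 2-fold series; inoculum ~5 × 10^5 CFU/mL from overnight culture (OD600 0.01, mixed 1:1). MHB non-cation-adjusted for bacteria, RPMI 1640 + 2% glucose for fungi. 37 °C, 20 h, OD600. MIC50/MIC90 at 50%/90% inhibition; n ≥ 3.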

[3] = system: A. baumannii ATCC 17978; test: microbe, parasite or virus in culture; format: cell-based, Acinetobacter baumannii; settings: A. baumannii ATCC 17978 (S); shown in µM
Outline: as §1

[4] = system: C. parapsilosis NCPF 3209; test: microbe, parasite or virus in culture; format: cell-based; settings: C. parapsilosis NCPF 3209; shown in µM
Outline: as §1

[5] = system: C. tropicalis NCPF 8760; test: microbe, parasite or virus in culture; format: cell-based; settings: C. tropicalis NCPF 8760; shown in µM
Outline: as §1

[6] = system: C. albicans NCPF 3281; test: microbe, parasite or virus in culture; format: cell-based; settings: C. albicans NCPF 3281
Outline: as §1

[7] = system: C. glabrata NCPF 8018; test: microbe, parasite or virus in culture; format: cell-based; settings: C. glabrata NCPF 8018
Outline: as §1

[8] = system: C. krusei NCPF 3876; test: microbe, parasite or virus in culture; format: cell-based; settings: C. krusei NCPF 3876; shown in µM
Outline: as §1

[9] = system: HaCat cell line; test: In vitro HaCat cytotoxicity (MTT); format: cell-based, human; settings: 21 h exposure, OD570, relative to untreated control
Procedure: The HaCat cell line (Cellonex, South Africa) was cultured in Dulbecco’s Modified Eagle Medium (DMEM) supplemented with 10% heat-inactivated fetal calf serum (FCS) and 1% antibiotic-antimycotic (Abs) and maintained at 5–10% CO2, 37 °C, 95% humidity. For cytotoxicity screening, 5.56 × 10^4 cells/mL were plated in a 96-well plate. After 24 h incubation, the cells are initially exposed to each peptide at a concentration of 256 μg/mL or 0.1% Triton-X-100 as the control for 21 h. If cytotoxicity was observed, at a level of significance of p < 0.0001 compared with the untreated control after 21 h, a dose-response assay was undertaken. Cell viability was determined by adding 10% 3-(4,5-dimethyl-2-thiazolyl)-2,5-diphenyl-2H-tetrazolium bromide (MTT) (1 mg/mL), to each well and after a further 3 h incubation the media was discarded, and the formazan crystals dissolved by adding 25% DMSO in ethanol. The absorbance was measured at OD570 by using the FLUOstar Omega multidetection microplate reader (BMG Labtech). Percentage cell viability was calculated relative to the untreated control. The LC50 was defined as the concentration of AMP treatment that results in 50% lethality of HaCat cells and was determined from the dose-response curves.

[10] = system: K. pneumoniae M6; test: microbe, parasite or virus in culture; format: cell-based, Klebsiella pneumoniae; settings: K. pneumoniae M6 (S); shown in µM
Outline: as §1

[11] = system: K. pneumoniae NCTC 13368; test: microbe, parasite or virus in culture; format: cell-based, Klebsiella pneumoniae; settings: K. pneumoniae NCTC 13368 (R); shown in µM
Outline: as §1

[12] = system: E. coli LEC001; test: microbe, parasite or virus in culture; format: cell-based, Escherichia coli; settings: E. coli LEC001 (R); shown in µM
Outline: as §1

[13] = system: E. coli NCTC 12923; test: microbe, parasite or virus in culture; format: cell-based, Escherichia coli; settings: E. coli NCTC 12923 (S); shown in µM
Outline: as §1

[14] = system: S. aureus (MSSA) ATCC 9144; test: microbe, parasite or virus in culture; format: cell-based, Staphylococcus aureus; settings: S. aureus (MSSA) ATCC 9144 (S); shown in µM
Outline: as §1

[15] = system: S. aureus (MRSA) 1199B; test: microbe, parasite or virus in culture; format: cell-based, Staphylococcus aureus; settings: S. aureus (MRSA) 1199B (R); shown in µM
Outline: as §1

[16] = system: S. aureus (MRSA) NCTC 13616; test: microbe, parasite or virus in culture; format: cell-based, Staphylococcus aureus; settings: S. aureus (MRSA) NCTC 13616 (R); shown in µM
Outline: as §1

[17] = system: S. aureus (MRSA) USA300; test: microbe, parasite or virus in culture; format: cell-based, Staphylococcus aureus; settings: S. aureus (MRSA) USA300 (R); shown in µM
Outline: as §1

[18] = system: C. auris TDG 1912; test: microbe, parasite or virus in culture; format: cell-based, Candida auris; settings: C. auris TDG 1912
Outline: as §1

[19] = system: P. aeruginosa NCTC 13437; test: microbe, parasite or virus in culture; format: cell-based, Pseudomonas aeruginosa; settings: P. aeruginosa NCTC 13437 (R); shown in µM
Outline: as §1

[20] = system: P. aeruginosa PAO1; test: microbe, parasite or virus in culture; format: cell-based, Pseudomonas aeruginosa; settings: P. aeruginosa PAO1 (S)
Outline: as §1

[21] = 50% growth inhibition, RPMI 1640 + 2% glucose, 37 °C, 20 h, OD600
[22] = 90% growth inhibition, RPMI 1640 + 2% glucose, 37 °C, 20 h, OD600
[23] = MHB, 37 °C, 20 h, OD600, min. three biological repeats
[24] = 50% growth inhibition, RPMI 1640 + 2% glucose, 37 °C, 20 h
[25] = 90% growth inhibition, RPMI 1640 + 2% glucose, 37 °C, 20 h

CC[C@H](C)[C@H](NC(=O)[C@H](CCCCN)NC(=O)[C@H](CCC(=O)O)NC(=O)[C@H](Cc1c[nH]c2ccccc12)NC(=O)[C@H](Cc1ccccc1)NC(=O)[C@H](CCCCN)NC(=O)CNC(=O)[C@H](CC(C)C)NC(=O)[C@H](C)N)C(=O)N[C@@H](CCCCN)C(=O)N[C@@H](CO)C(=O)N[C@@H](CC(C)C)C(=O)N[C@@H](Cc1ccccc1)C(N)=O [A1F5K8-IsCTa] (H-ALGKFWEKIKSLF-NH2)
HC10 (concentration causing 10% hemolysis) [1]: 102 µg/mL | Modal MIC [2]: 5 µM | Modal MIC [3]: 2.5 µM | Modal MIC50 [4]: 39.8 µM | Modal MIC90 [4]: 39.8 µM | Modal MIC50 [5]: 5 µM | Modal MIC90 [5]: 5 µM | Modal MIC50 ([6]; shown in µM): 39.9 µM | Modal MIC90 ([6]; shown in µM): 39.9 µM | Modal MIC50 ([7]; shown in µM): 39.9 µM | Modal MIC90 ([7]; shown in µM): 79.9 µM | Modal MIC50 [8]: 19.9 µM | Modal MIC90 [8]: 19.9 µM | % HaCat cell death at initial screening (256μg/mL) ± SD [9]: 83.6 ±9.2% | Modal MIC [10]: 10 µM | Modal MIC [11]: 10 µM | Modal MIC [12]: 5 µM | Modal MIC [13]: 5 µM | Modal MIC [14]: 2.5 µM | Modal MIC [15]: 5 µM | Modal MIC [16]: 10 µM | Modal MIC [17]: 10 µM | Modal MIC50 [18, 21]: > 128 µg/mL | Modal MIC90 [18, 22]: > 128 µg/mL | Modal MIC50 ([18]; shown in µM): > 79.9 µM | Modal MIC90 ([18]; shown in µM): > 79.9 µM | Modal MIC [19]: 39.9 µM | Modal MIC [20, 23]: > 128 µg/mL | Modal MIC ([20]; shown in µM): > 79.9 µM

CC[C@H](C)[C@H](NC(=O)[C@H](C)NC(=O)[C@H](CCCCN)NC(=O)[C@H](CCCNC(=N)N)NC(=O)[C@@H](NC(=O)[C@H](CC(C)C)NC(=O)[C@H](CO)NC(=O)[C@H](Cc1ccccc1)NC(=O)[C@H](CC(C)C)NC(=O)[C@@H](N)Cc1ccccc1)[C@@H](C)CC)C(=O)NCC(=O)NCC(=O)N[C@@H](CC(C)C)C(=O)N[C@H](C(=O)N[C@@H](CO)C(=O)N[C@@H](C)C(=O)N[C@@H](Cc1ccccc1)C(=O)N[C@@H](CCCCN)C(=O)O)[C@@H](C)CC [A3]
HC10 (concentration causing 10% hemolysis) [1]: 9 µg/mL | % HaCat cell death at initial screening (256μg/mL) ± SD [9]: 100 ± 9.7%

CC[C@H](C)[C@H](NC(=O)[C@H](C)NC(=O)[C@H](CCCCN)NC(=O)[C@@H]1CCCN1C(=O)[C@@H](NC(=O)[C@H](CC(C)C)NC(=O)[C@H](CCCCN)NC(=O)[C@H](Cc1ccccc1)NC(=O)[C@H](CC(C)C)NC(=O)[C@@H](N)Cc1ccccc1)[C@@H](C)CC)C(=O)N[C@@H](CCCCN)C(=O)N[C@@H](CCCCN)C(=O)N[C@@H](CC(C)C)C(=O)N[C@H](C(=O)N[C@@H](CO)C(=O)N[C@@H](CCCCN)C(=O)N[C@@H](Cc1ccccc1)C(=O)N[C@@H](CCCCN)C(=O)O)[C@@H](C)CC [AamAP1-Lys] (H-FLFKLIPKAIKKLISKFK-OH)
HC10 (concentration causing 10% hemolysis) [1]: 94 µg/mL | % HaCat cell death at initial screening (256μg/mL) ± SD [9]: 99.1 ± 8.7%

CC[C@H](C)[C@H](NC(=O)[C@H](C)NC(=O)[C@H](CCCCN)NC(=O)[C@@H]1CCCN1C(=O)[C@@H](NC(=O)[C@H](CC(C)C)NC(=O)[C@H](CO)NC(=O)[C@H](Cc1ccccc1)NC(=O)[C@H](CC(C)C)NC(=O)[C@@H](N)Cc1ccccc1)[C@@H](C)CC)C(=O)NCC(=O)NCC(=O)N[C@@H](CC(C)C)C(=O)N[C@H](C(=O)N[C@@H](CO)C(=O)N[C@@H](C)C(=O)N[C@@H](Cc1ccccc1)C(=O)N[C@@H](CCCCN)C(=O)O)[C@@H](C)CC [AamAP-S1]
HC10 (concentration causing 10% hemolysis) [1]: 128 µg/mL | HC50 (concentration causing 50% hemolysis) [1]: 195 µg/mL | % HaCat cell death at initial screening (256μg/mL) ± SD [9]: 85 ±17.9%

CC[C@H](C)[C@H](N)C(=O)N[C@@H](CC(C)C)C(=O)NCC(=O)N[C@@H](CCCCN)C(=O)N[C@H](C(=O)N[C@@H](Cc1c[nH]c2ccccc12)C(=O)N[C@@H](CCCCN)C(=O)N1CCC[C@H]1C(=O)N[C@H](C(=O)N[C@@H](CCCCN)C(=O)N[C@@H](CCCCN)C(=O)N[C@@H](CC(C)C)C(=O)N[C@@H](Cc1ccccc1)C(N)=O)[C@@H](C)CC)[C@@H](C)CC [K7P8K11-IsCTa] (H-ILGKIWKPIKKLF-NH2)
Modal MIC [2]: 4.9 µM | Modal MIC [3]: 4.9 µM | Modal MIC50 [4]: 39.5 µM | Modal MIC90 [4]: 79 µM | Modal MIC50 [5]: 4.9 µM | Modal MIC90 [5]: 9.9 µM | Modal MIC50 [6, 24]: > 128 µg/mL | Modal MIC90 [6, 25]: > 128 µg/mL | Modal MIC50 ([6]; shown in µM): > 79 µM | Modal MIC90 ([6]; shown in µM): > 79 µM | Modal MIC50 [7, 24]: > 128 µg/mL | Modal MIC90 [7, 25]: > 128 µg/mL | Modal MIC50 ([7]; shown in µM): > 79 µM | Modal MIC90 ([7]; shown in µM): > 79 µM | Modal MIC50 [8]: 19.8 µM | Modal MIC90 [8]: 39.5 µM | % HaCat cell death at initial screening (256μg/mL) ± SD [9]: 89.2 ± 9.1% | Modal MIC [10]: 19.8 µM | Modal MIC [11]: 39.5 µM | Modal MIC [12]: 39.5 µM | Modal MIC [13]: 9.9 µM | Modal MIC [14]: 4.9 µM | Modal MIC [15]: 19.8 µM | Modal MIC [16]: 39.5 µM | Modal MIC [17]: 39.5 µM | Modal MIC50 [18, 21]: > 128 µg/mL | Modal MIC90 [18, 22]: > 128 µg/mL | Modal MIC50 ([18]; shown in µM): > 79 µM | Modal MIC90 ([18]; shown in µM): > 79 µM | Modal MIC [19]: 39.5 µM | Modal MIC [20, 23]: > 128 µg/mL | Modal MIC ([20]; shown in µM): > 79 µM
